# Assay results: patent US3970648A, “2-[2-(5-Nitro-2-furyl)vinyl]-4-(anilino)quinazolines” (Diamond Shamrock Corporation, priority 1974, dated 1976)
# Columns and labels:
# [1] = tested on: Bordetella bronchiseptica; assay: Bactericide test, Bordetella bronchiseptica (agar streak plate); type: cell-based
# Text: (§1) Test formulations were examined for bactericidal and/or bacteriostatic activity against the test organisms shown in Tables A and B. These organisms were chosen as being representative of commercially important pathogens affecting animal agriculture. The antibiotic chlortetracycline was chosen as a positive control, since it has a broad spectrum of activity against a large number of organisms, and its activity can be used for comparative purposes.
# (§2) Basic test formulations of the product of Examples I, II, III, and of chlortetracycline were prepared by dissolving 16 mg (0.016 g) in 2.0 ml of stock emulsifier solution (0.25% Triton X-155 in acetone by volume) and making each solution up to 50 ml with deionized water. The concentration of the test compound in the basic formulation was 320 ppm. Lower concentrations of the test compound were obtained by diluting the basic formulation with a 4% solution of the stock emulsifier in deionized water so that each dilution in the series differed only in test compound content.
# (§3) Nutrient-tryptic soy agar (NTA) consisting of 2.0% Difco Bactoagar 0.8% nutrient broth (Difco), and 0.5% tryptic soy broth (Difco) was prepared and sterilized by autoclaving. A 2 ml aliquot of each test formulation was added to 8 ml of molten NTA. This mixture was then plated in a sterile polystyrene petri dish (100 × 15 mm). After the agar was set, suspensions of each of the test organisms were simultaneously streaked onto the surface of the agar. The inoculated plates were incubated for 48 hr at 28°C. The inhibition of growth of each organism was rated by visual comparison with the organism developing on non-treated agar. Growth inhibition reported as per cent control was rated in three categories as follows: 0% control, growth equivalent to that on non-treated agar; 50% control, sparse development and separated colonies; 100% control, no visible growth or development of colonies.
# Streptococcus agalactiae = assay: Bactericide test, Streptococcus agalactiae (agar streak plate); type: cell-based
# Text: as §1, §2, §3
# Streptococcus faecalis = assay: Bactericide test, Streptococcus faecalis (agar streak plate); type: cell-based
# Text: as §1, §2, §3
# (§4) Test formulations of the product of Example IV were examined for bactericidal and/or bacteriostatic activity against the test organisms shown in Table B using the Bactericide Test described in Example V. The inhibition of organism growth with each diluted test formulation was rated visually by comparison with the organism developing on a non-treated control agar plate. Growth inhibition reported as per cent control was rated in three categories as follows: 0% control, growth equivalent to that on non-treated agar; 50% control is sparse development and separated colonies; and 100% control, development of individual colonies was not apparent.
# [2] = Growth promotion in chicks, Example XII repeat (Table VII); type: in vivo, broiler cross chicks; settings: for growth rate / feed efficiency, production parameters (in words): 25 g/T, second set of tests
# Text: (§5) This example compares growth promotion activity of the product of Example I with other growth promotants at a concentration of 25 g/T in the Basal Ration described in Example VII. The other growth promotants include the product described in Example I of U.S. Pat. No. 3,542,784 -- Burch and quinoxaline-1,4-dioxide. Day old broiler cross chicks were weight equalized into groups of eight chicks each, and four replicates of eight chicks each were fed the experimental rations over a 4 week period.
# The growth promotion tests described in Example X were repeated with the additional testing the products of Examples II and III.
# Streptococcus group E = assay: Bactericide test, Streptococcus group E (agar streak plate); type: cell-based
# Text: as §1, §2, §3
# Salmonella typhimurium = assay: Bactericide test, Salmonella typhimurium (agar streak plate); type: cell-based
# Text: as §1, §2, §3
# [3] = tested on: Erysipelothrix rhusiopathiae; assay: Bactericide test, Erysipelothrix rhusiopathiae (agar streak plate); type: cell-based
# Text: as §1, §2, §3
# Vibrio coli = assay: Bactericide test, Vibrio coli (agar streak plate); type: cell-based
# Text: as §1, §2, §3
# Salmonella cholerasuis = assay: Bactericide test, Salmonella cholerasuis (agar streak plate); type: cell-based
# Text: as §1, §2, §3, §4
# Salmonella gallinarum = assay: Bactericide test, Salmonella gallinarum (agar streak plate); type: cell-based
# Text: as §1, §2, §3, §4
# [4] = Growth promotion in chicks at 25 g/T, Example X (Table IV); type: in vivo, broiler cross chicks
# Text: as §5
# Staphylococcus aureus = assay: Bactericide test, Staphylococcus aureus (agar streak plate); type: cell-based
# Text: as §1, §2, §3, §4
# [5] = Growth promotion in chicks, Example XII first set (Table VI); type: in vivo, broiler cross chicks; settings: for Average 4 Week Performance: Feed Efficiency / Average 4 Week Performance: Gain / Improved Response Over Basal Ration: Feed Efficiency / Improved Response Over Basal Ration: Gain: 25 g/T in basal ration, 4 weeks; for growth rate / feed efficiency, production parameters (in words): 25 g/T, first set of tests
# Text: This example compares growth promotion activity of the product of Example I with other growth promotants at a concentration of 25 g/T in the Basal Ration described in Example VII. The other growth promotants include the product described in Example I of U.S. Pat. No. 3,542,784 -- Burch and quinoxaline-1,4-dioxide. Day old broiler cross chicks were weight equalized into groups of eight chicks each, and four replicates of eight chicks each were fed the experimental rations over a 4 week period. […]
# [6] = Growth promotion in chicks at low feed levels, Example VIII (Table II); type: in vivo, broiler cross chicks; settings: 10 g/T in basal ration; 4 weeks
# Text: Day old broiler cross chicks were weight equalized into groups of eight chicks each and were placed in battery brooders. The 32 chick treatment groups (four replicates) were fed one of the five rations described below for a 4 week period. Weekly measurements of body weights and feed consumption were made by replicate, and these measurements used to calculate weight gain and feed efficiency.
# The basal ration was the basal ration used in Example VII above. The remaining five rations were obtained by mixing the indicated quantities of bacitracin (4 g/T), chlortetracycline (10 g/T), product of Example I (10 g/T), and product of Example III of U.S. Pat. No. 3,542,784 -- Burch (10 g/T) as growth promotants with the basal ration.
# [7] = 100% inhibition at lower concentrations
# [8] = 25 g/T in basal ration, 4 weeks
molecule,measurement,setting,value
2-[2-(5-nitro-2-furyl)vinyl]-4-(o-hydroxyanilino)quinazoline [Example III],% Inhibition,[1]; 0.125 ppm,100%
same,% Inhibition,[1]; 0.25 ppm,100%
same,% Inhibition,[1]; 0.5 ppm,100%
same,% Inhibition,[1]; 1 ppm,100%
same,% Inhibition,[1]; 2 ppm,100%
same,% Inhibition,[1]; 4 ppm,100%
same,% Inhibition,[1]; 8 ppm,100%
same,% Inhibition,[1]; 16 ppm,100%
same,% Inhibition,[1]; 32 ppm,100%
same,% Inhibition,[1]; 64 ppm,100%
same,effectiveness compared with chlortetracycline (in words),[1]; [7],considerably more effective
same,% Inhibition,Streptococcus agalactiae; 0.125 ppm,100%
same,% Inhibition,Streptococcus agalactiae; 0.25 ppm,100%
same,% Inhibition,Streptococcus agalactiae; 0.5 ppm,100%
same,% Inhibition,Streptococcus agalactiae; 1 ppm,100%
same,% Inhibition,Streptococcus agalactiae; 2 ppm,100%
same,% Inhibition,Streptococcus agalactiae; 4 ppm,100%
same,% Inhibition,Streptococcus agalactiae; 8 ppm,100%
same,% Inhibition,Streptococcus agalactiae; 16 ppm,100%
same,% Inhibition,Streptococcus agalactiae; 32 ppm,100%
same,% Inhibition,Streptococcus agalactiae; 64 ppm,100%
same,effectiveness compared with chlortetracycline (in words),Streptococcus agalactiae; [7],considerably more effective
same,% Inhibition,Streptococcus faecalis; 0.125 ppm,0%
same,% Inhibition,Streptococcus faecalis; 0.25 ppm,0%
same,effectiveness compared with chlortetracycline (in words),Streptococcus faecalis; [7],considerably more effective
same,Average 4 Week Performance: Feed Efficiency,[2]; [8],1.669
same,Average 4 Week Performance: Gain,[2]; [8],723.7 g
same,Improved Response Over Basal Ration: Feed Efficiency,[2]; [8],+6.5%
same,Improved Response Over Basal Ration: Gain,[2]; [8],+6.0%
same,"growth rate / feed efficiency, production parameters (in words)",[2],more substantial response
same,% Inhibition,Streptococcus group E; 0.125 ppm,100%
same,% Inhibition,Streptococcus group E; 0.25 ppm,100%
same,% Inhibition,Streptococcus group E; 0.5 ppm,100%
same,% Inhibition,Streptococcus group E; 1 ppm,100%
same,% Inhibition,Streptococcus group E; 2 ppm,100%
same,% Inhibition,Streptococcus group E; 4 ppm,100%
same,% Inhibition,Streptococcus group E; 8 ppm,100%
same,% Inhibition,Streptococcus group E; 16 ppm,100%
same,% Inhibition,Streptococcus group E; 32 ppm,100%
same,% Inhibition,Streptococcus group E; 64 ppm,100%
same,effectiveness compared with chlortetracycline (in words),Streptococcus group E; [7],considerably more effective
same,% Inhibition,Salmonella typhimurium; 0.125 ppm,0%
same,% Inhibition,Salmonella typhimurium; 0.25 ppm,0%
same,% Inhibition,Salmonella typhimurium; 0.5 ppm,0%
same,% Inhibition,Salmonella typhimurium; 1 ppm,0%
same,% Inhibition,Salmonella typhimurium; 2 ppm,0%
same,% Inhibition,Salmonella typhimurium; 4 ppm,0%
same,% Inhibition,Salmonella typhimurium; 8 ppm,0%
same,% Inhibition,Salmonella typhimurium; 16 ppm,0%
same,% Inhibition,Salmonella typhimurium; 32 ppm,0%
same,% Inhibition,Salmonella typhimurium; 64 ppm,0%
same,% Inhibition,[3]; 1 ppm,100%
same,% Inhibition,[3]; 2 ppm,100%
same,% Inhibition,[3]; 4 ppm,100%
same,% Inhibition,[3]; 8 ppm,100%
same,% Inhibition,[3]; 16 ppm,100%
same,% Inhibition,[3]; 32 ppm,100%
same,% Inhibition,[3]; 64 ppm,100%
same,effectiveness compared with chlortetracycline (in words),[3]; [7],considerably more effective
same,% Inhibition,Vibrio coli; 0.125 ppm,100%
same,% Inhibition,Vibrio coli; 0.25 ppm,100%
same,% Inhibition,Vibrio coli; 0.5 ppm,100%
same,% Inhibition,Vibrio coli; 1 ppm,100%
same,% Inhibition,Vibrio coli; 2 ppm,100%
same,% Inhibition,Vibrio coli; 4 ppm,100%
same,% Inhibition,Vibrio coli; 8 ppm,100%
same,% Inhibition,Vibrio coli; 16 ppm,100%
same,% Inhibition,Vibrio coli; 32 ppm,100%
same,% Inhibition,Vibrio coli; 64 ppm,100%
same,effectiveness compared with chlortetracycline (in words),Vibrio coli; [7],considerably more effective
same,% Inhibition,Salmonella cholerasuis; 0.125 ppm,0%
same,% Inhibition,Salmonella cholerasuis; 0.25 ppm,0%
same,% Inhibition,Salmonella cholerasuis; 0.5 ppm,0%
same,% Inhibition,Salmonella cholerasuis; 1 ppm,0%
same,% Inhibition,Salmonella cholerasuis; 2 ppm,0%
same,% Inhibition,Salmonella cholerasuis; 16 ppm,100%
same,% Inhibition,Salmonella cholerasuis; 32 ppm,100%
same,% Inhibition,Salmonella cholerasuis; 64 ppm,100%
same,% Inhibition,Salmonella gallinarum; 0.125 ppm,0%
same,% Inhibition,Salmonella gallinarum; 0.25 ppm,0%
same,% Inhibition,Salmonella gallinarum; 0.5 ppm,0%
same,% Inhibition,Salmonella gallinarum; 1 ppm,0%
same,% Inhibition,Salmonella gallinarum; 2 ppm,0%
same,% Inhibition,Salmonella gallinarum; 4 ppm,50%
same,% Inhibition,Salmonella gallinarum; 8 ppm,50%
same,% Inhibition,Salmonella gallinarum; 16 ppm,100%
same,% Inhibition,Salmonella gallinarum; 32 ppm,100%
same,% Inhibition,Salmonella gallinarum; 64 ppm,100%
same,Average 4 Week Performance: Feed Efficiency,[4]; [8],1.503
same,Average 4 Week Performance: Gain,[4]; [8],812.7 g
same,Improved Response Over Basal Ration: Feed Efficiency,[4]; [8],+3.2%
same,Improved Response Over Basal Ration: Gain,[4]; [8],+6.2%
same,% Inhibition,Staphylococcus aureus; 0.125 ppm,0%
same,% Inhibition,Staphylococcus aureus; 0.25 ppm,0%
same,% Inhibition,Staphylococcus aureus; 0.5 ppm,0%
same,% Inhibition,Staphylococcus aureus; 1 ppm,0%
same,% Inhibition,Staphylococcus aureus; 2 ppm,0%
same,% Inhibition,Staphylococcus aureus; 4 ppm,0%
same,% Inhibition,Staphylococcus aureus; 8 ppm,0%
same,% Inhibition,Staphylococcus aureus; 16 ppm,0%
same,% Inhibition,Staphylococcus aureus; 32 ppm,0%
same,% Inhibition,Staphylococcus aureus; 64 ppm,0%
same,Average 4 Week Performance: Feed Efficiency,[5],1.597
same,Average 4 Week Performance: Gain,[5],766.9 g
same,Improved Response Over Basal Ration: Feed Efficiency,[5],+2.3%
same,Improved Response Over Basal Ration: Gain,[5],+3.1%
same,"growth rate / feed efficiency, production parameters (in words)",[5],moderate improvements
"O=[N+]([O-])c1ccc(-c2nc(Nc3ccc(O)cc3)c3ccccc3n2)o1 [2-(5-nitro-2-furyl)-4-(p-hydroxyanilino)quinazoline, reference compound]",Average 4 Week Performance: Feed Efficiency,[6],1.726
same,Average 4 Week Performance: Gain,[6],723.1 g
same,Improved Response Over Basal Ration: Feed Efficiency,[6],+1.9%
same,Improved Response Over Basal Ration: Gain,[6],+0.4%
same,"growth rate / feed efficiency, production parameters (in words)",[2],essentially no effect on growth rate or feed efficiency
same,effect on feed efficiency (in words),[4]; 25 g/T,"slight, if any, effect on feed efficiency"
same,growth response (in words),[4]; 25 g/T,appeared to give a growth response
same,Average 4 Week Performance: Feed Efficiency,[5],1.675
same,Average 4 Week Performance: Gain,[5],736.9 g
same,Improved Response Over Basal Ration: Feed Efficiency,[5],-2.5%
same,Improved Response Over Basal Ration: Gain,[5],-1.0%
same,"growth rate / feed efficiency, production parameters (in words)",[5],essentially no effect on growth rate or feed efficiency
